# From patent US6737383B1, “Herbicidal oxadiazolidines” (priority 1999, dated 2004)
# What was measured:
# smallflower flatsedge = test: Test B flood test smallflower flatsedge; assay type: in vivo, Cyperus difformis
# Outline: (§1)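 Each value is a visual injury score relative to controls, with 10 meaning complete control and 0 no effect. Evaluation took place twelve to sixteen days after the 2-leaf-stage plants were treated and kept in the greenhouse.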
# bedstraw = test: Test B pre/postemergence bedstraw; assay type: in vivo, Galium aparine; conditions: Preemergence, Rate 250 g/ha; scale 0 to 10, 0 is no effect, 10 is complete control
# Outline: (§2)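 Test chemicals in a non-phytotoxic solvent mixture with surfactant were sprayed preemergence onto planted seeds and postemergence onto plants 2 to 18 cm tall (1- to 4-leaf stage). After twelve to sixteen days in a greenhouse, injury was visually rated against untreated controls from 0 (no effect) to 10 (complete control).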
# duck salad = test: Test B flood test duck salad; assay type: in vivo, Heteranthera limosa
# Outline: as §1
# corn = test: Test B pre/postemergence corn; assay type: in vivo, Zea mays
# Outline: as §2
# wheat = test: Test B pre/postemergence wheat; assay type: in vivo, Triticum aestivum; conditions: for Plant response rating, Wheat: scale of 0 to 10 where 0 is no effect and 10 is complete control
# Outline: as §2
# wild oat = test: Test B pre/postemergence wild oat; assay type: in vivo, Avena fatua; conditions: for Plant response rating, Wild oats: scale of 0 to 10 where 0 is no effect and 10 is complete control
# Outline: as §2
# blackgrass = test: Test B pre/postemergence blackgrass; assay type: in vivo, Alopecurus myosuroides
# Outline: as §2
# pigweed = test: Test B pre/postemergence pigweed; assay type: in vivo, Amaranthus retroflexus; conditions: for Plant response rating, Redroot pigweed: scale of 0 to 10 where 0 is no effect and 10 is complete control
# Outline: as §2
# surinam grass = test: Test B pre/postemergence surinam grass; assay type: in vivo, Brachiaria decumbens
# Outline: as §2
# rape = test: Test B pre/postemergence rape; assay type: in vivo, Brassica napus; conditions: for Plant response rating, Rape: scale of 0 to 10 where 0 is no effect and 10 is complete control
# Outline: as §2
# crabgrass = test: Test B pre/postemergence crabgrass; assay type: in vivo, Digitaria sanguinalis
# Outline: as §2
# sugar beet = test: Test B pre/postemergence sugar beet; assay type: in vivo, Beta vulgaris; conditions: for Plant response rating, Sugarbeets: scale of 0 to 10 where 0 is no effect and 10 is complete control
# Outline: as §2
# purple nutsedge = test: Test B pre/postemergence purple nutsedge; assay type: in vivo, Cyperus rotundus; conditions: for Plant response rating, Nutsedge: scale of 0 to 10 where 0 is no effect and 10 is complete control
# Outline: as §2
# velvetleaf = test: Test B pre/postemergence velvetleaf; assay type: in vivo, Abutilon theophrasti; conditions: for Plant response rating, Velvetleaf: scale of 0 to 10 where 0 is no effect and 10 is complete control
# Outline: as §2
# soybean = test: Test B pre/postemergence soybean; assay type: in vivo, Glycine max; conditions: for Plant response rating, Soybean: scale of 0 to 10 where 0 is no effect and 10 is complete control
# Outline: as §2
# rice = test: Test B flood test rice; assay type: in vivo, Oryza sativa
# Outline: as §1
# [1] = Rate 62 g/ha, flood test species, Pre-emergence, visual evaluation after twelve to sixteen days
# [2] = Rate 125 g/ha, under heading Pre-emergence, flood test species, visual evaluation after twelve to sixteen days
# [3] = Rate 250 g/ha, Pre-emergence (flood test species), scale 0 to 10, 0 is no effect, 10 is complete control
# [4] = Rate 500 g/ha, Pre-emergence, flood test species, scale 0 to 10 (0 no effect, 10 complete control)
# [5] = Postemergence, Rate 250 g/ha, scale 0 to 10
# [6] = Postemergence, Rate 500 g/ha, scale of 0 to 10 where 0 is no effect and 10 is complete control
# [7] = Preemergence, Rate 62 g/ha, scale of 0 to 10 where 0 is no effect and 10 is complete control
# [8] = Preemergence, Rate 125 g/ha, scale of 0 to 10 where 0 is no effect and 10 is complete control
# [9] = Preemergence, Rate 250 g/ha, scale 0 to 10, 0 is no effect, 10 is complete control
# [10] = Preemergence, Rate 500 g/ha, scale 0 to 10, 0 is no effect, 10 is complete control
# [11] = Rate 62 g/ha, Postemergence, scale 0 to 10 (0 no effect, 10 complete control)
# [12] = Rate 125 g/ha, Postemergence, scale 0 to 10, 0 is no effect, 10 is complete control
compound,measurement,setting,value
CC(C)N(C(=O)n1oc(=O)n(CCC[Si](C)(C)C)c1=O)c1ccc(F)cc1 [Compound 461],"Plant response rating, S. Flatsedge (0 to 10 scale, 0 is no effect, 10 is complete control)",smallflower flatsedge; [1],0
same,"S. Flatsedge plant response rating (0 to 10 scale, 0 is no effect, 10 is complete control)",smallflower flatsedge; [2],0
same,S. Flatsedge plant response rating,smallflower flatsedge; [3],0
same,S. Flatsedge plant response rating,smallflower flatsedge; [4],0
same,Bedstraw plant response rating,bedstraw,0
same,"Plant response rating, Ducksalad (0 to 10 scale, 0 is no effect, 10 is complete control)",duck salad; [1],0
same,"Ducksalad plant response rating (0 to 10 scale, 0 is no effect, 10 is complete control)",duck salad; [2],0
same,Ducksalad plant response rating,duck salad; [3],0
same,Ducksalad plant response rating,duck salad; [4],0
same,Corn plant response rating,corn; [5],0
same,Corn plant response rating,corn; [6],0
same,"Plant response rating, Corn",corn; [7],0
same,"Plant response rating, Corn",corn; [8],0
same,Corn plant response rating,corn; [9],0
same,Corn plant response rating,corn; [10],0
same,Corn plant response rating,corn; [11],0
same,Corn plant response rating,corn; [12],0
same,Wheat plant response rating,wheat; [5],0
same,"Plant response rating, Wheat","wheat; Preemergence, Rate 62 g/ha",0
same,"Plant response rating, Wheat","wheat; Preemergence, Rate 125 g/ha",0
same,Wheat plant response rating,wheat; [9],0
same,Wheat plant response rating,wheat; [10],0
same,Wheat plant response rating,wheat; [11],0
same,Wheat plant response rating,wheat; [12],0
same,Wild oats plant response rating,wild oat; [5],0
same,"Plant response rating, Wild oats","wild oat; Preemergence, Rate 62 g/ha",0
same,"Plant response rating, Wild oats","wild oat; Preemergence, Rate 125 g/ha",0
same,Wild oats plant response rating,wild oat; [9],0
same,Wild oats plant response rating,wild oat; [10],0
same,Wild oats plant response rating,wild oat; [11],0
same,Wild oats plant response rating,wild oat; [12],0
same,Blackgrass plant response rating,blackgrass; [5],0
same,Blackgrass plant response rating,blackgrass; [6],3
same,"Plant response rating, Blackgrass",blackgrass; [7],0
same,"Plant response rating, Blackgrass",blackgrass; [8],0
same,Blackgrass plant response rating,blackgrass; [9],0
same,Blackgrass plant response rating,blackgrass; [10],0
same,Blackgrass plant response rating,blackgrass; [11],0
same,Blackgrass plant response rating,blackgrass; [12],0
same,Redroot pigweed plant response rating,pigweed; [5],0
same,"Plant response rating, Redroot pigweed","pigweed; Preemergence, Rate 62 g/ha",0
same,"Plant response rating, Redroot pigweed","pigweed; Preemergence, Rate 125 g/ha",0
same,Redroot pigweed plant response rating,pigweed; [9],0
same,Redroot pigweed plant response rating,pigweed; [10],0
same,Redroot pigweed plant response rating,pigweed; [11],0
same,Redroot pigweed plant response rating,pigweed; [12],0
same,B. signalgrass plant response rating,"surinam grass; Postemergence, Rate 250 g/ha, scale 0 to 10, 0 no effect, 10 complete control",0
same,B. signalgrass plant response rating,surinam grass; [6],0
same,"Plant response rating, B. signalgrass",surinam grass; [7],0
same,"Plant response rating, B. signalgrass",surinam grass; [8],0
same,B. signalgrass plant response rating,surinam grass; [9],0
same,B. signalgrass plant response rating,surinam grass; [10],0
same,B. signalgrass plant response rating,surinam grass; [11],0
same,B. signalgrass plant response rating,surinam grass; [12],0
same,Rape plant response rating,rape; [5],0
same,"Plant response rating, Rape","rape; Preemergence, Rate 62 g/ha",0
same,"Plant response rating, Rape","rape; Preemergence, Rate 125 g/ha",0
same,Rape plant response rating,rape; [9],0
same,Rape plant response rating,rape; [10],0
same,Rape plant response rating,rape; [11],0
same,Rape plant response rating,rape; [12],0
same,Crabgrass plant response rating,crabgrass; [5],0
same,Crabgrass plant response rating,crabgrass; [6],2
same,"Plant response rating, Crabgrass",crabgrass; [7],0
same,"Plant response rating, Crabgrass",crabgrass; [8],0
same,Crabgrass plant response rating,crabgrass; [9],0
same,Crabgrass plant response rating,crabgrass; [10],3
same,Crabgrass plant response rating,crabgrass; [11],0
same,Crabgrass plant response rating,crabgrass; [12],0
same,Sugarbeets plant response rating,sugar beet; [5],0
same,"Plant response rating, Sugarbeets","sugar beet; Preemergence, Rate 62 g/ha",0
same,"Plant response rating, Sugarbeets","sugar beet; Preemergence, Rate 125 g/ha",0
same,Sugarbeets plant response rating,sugar beet; [9],0
same,Sugarbeets plant response rating,sugar beet; [10],0
same,Sugarbeets plant response rating,sugar beet; [11],0
same,Sugarbeets plant response rating,sugar beet; [12],0
same,Nutsedge plant response rating,purple nutsedge; [5],0
same,"Plant response rating, Nutsedge","purple nutsedge; Preemergence, Rate 62 g/ha",0
same,"Plant response rating, Nutsedge","purple nutsedge; Preemergence, Rate 125 g/ha",0
same,Nutsedge plant response rating,purple nutsedge; [9],0
same,Nutsedge plant response rating,purple nutsedge; [10],0
same,Nutsedge plant response rating,purple nutsedge; [11],0
same,Nutsedge plant response rating,purple nutsedge; [12],0
same,Velvetleaf plant response rating,velvetleaf; [5],0
same,"Plant response rating, Velvetleaf","velvetleaf; Preemergence, Rate 62 g/ha",0
same,"Plant response rating, Velvetleaf","velvetleaf; Preemergence, Rate 125 g/ha",0
same,Velvetleaf plant response rating,velvetleaf; [9],0
same,Velvetleaf plant response rating,velvetleaf; [10],0
same,Velvetleaf plant response rating,velvetleaf; [11],0
same,Velvetleaf plant response rating,velvetleaf; [12],0
same,Soybean plant response rating,soybean; [5],3
same,"Plant response rating, Soybean","soybean; Preemergence, Rate 62 g/ha",0
same,"Plant response rating, Soybean","soybean; Preemergence, Rate 125 g/ha",0
same,Soybean plant response rating,soybean; [9],0
same,Soybean plant response rating,soybean; [10],0
same,Soybean plant response rating,soybean; [11],2
same,Soybean plant response rating,soybean; [12],3
same,"Plant response rating, Rice (0 to 10 scale, 0 is no effect, 10 is complete control)",rice; [1],0
same,"Rice plant response rating (0 to 10 scale, 0 is no effect, 10 is complete control)",rice; [2],0
same,Rice plant response rating,rice; [3],0
same,Rice plant response rating,rice; [4],0
